Where “and” joins values, the source holds several entries; their conditions need not be identical. Equal values may be shown once.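 Exposure lasted 48 hours, with cells grown in 96-well plates and compounds tested at five concentrations. GI50: concentration for 50% inhibition of growth. The concentration for full growth arrest is given as TGI.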
What was measured:
Experiment in all cases: NCI tumour cell line growth inhibition, 48 h
[1] = system: UACC-62 melanoma
[2] = system: MDA-MB-231 breast
[3] = system: KM12 colon
[4] = system: PC-3 prostate
[5] = system: NCI-H460 lung
[6] = system: MOLT-4 leukemia
[7] = system: OVCAR-4 ovarian
[8] = system: HCT-15 colon
[9] = system: M14 melanoma
[10] = system: NCI-H226 lung

SMILES | TGI [1] | TGI [2] | TGI [3] | TGI [4] | TGI [5] | TGI [6] | TGI [7] | TGI [8] | TGI [9] | TGI [10] | GI50 [1] | GI50 [2] | GI50 [3] | GI50 [6] | GI50 [7] | GI50 [8] | GI50 [9]
COc1cc2[nH]c(=O)[nH]c2c2c(C)c[nH]c12 | > 100 µM | > 100 µM | > 100 µM | > 100 µM | > 100 µM | > 100 µM | > 100 µM | > 100 µM | > 100 µM | > 100 µM | – | – | – | – | – | – | –
CC1CCC(O)/C=C/C(=O)OC(C)C(O)/C=C/C(=O)O1 (configuration not stated) | > 100 µM | > 100 µM | > 100 µM | > 100 µM | > 100 µM | > 100 µM | > 100 µM | > 100 µM | > 100 µM | > 100 µM | – | – | – | – | – | – | –
CC(CCC(=O)O)(c1cc(Br)c(O)c(Br)c1)c1cc(Br)c(O)c(Br)c1 | > 100 µM | > 100 µM | > 100 µM | > 100 µM | > 100 µM | > 100 µM | > 100 µM | > 100 µM | > 100 µM | > 100 µM | – | – | – | – | – | – | –
Cc1cc(S(=O)(=O)Nc2nc(N)n(-c3ccccc3)n2)c(S)cc1Cl | > 100 µM | > 100 µM | > 100 µM | > 100 µM | > 100 µM | > 100 µM | > 100 µM | > 100 µM | > 100 µM | > 100 µM | – | – | – | – | – | – | –
CS(=O)(=O)c1nc(-c2cc3c(c(S(C)(=O)=O)n2)CCC3)cc2c1CCC2 | > 100 µM | > 100 µM | > 100 µM | > 100 µM | > 100 µM | > 100 µM | > 100 µM | > 100 µM | > 100 µM | > 100 µM | – | – | – | – | – | – | –
C/C(=N\NC(=S)N/N=C(\C)c1ccccn1)c1ccccn1 | 15 µM | > 100 µM | > 100 µM | > 100 µM | 6.46 µM | 5.9 µM | > 100 µM | > 100 µM | 4.88 µM | 3.78 µM | – | – | – | – | – | – | –
COC(=O)/C=C1\C(=O)N(C(C)=O)c2ccccc21 | 18.4 µM | 21.3 µM | 29.2 µM | > 54.9 µM | 27.1 µM | 31.4 µM | 17.5 µM | 26.2 µM | 58.7 µM | 27.8 µM | – | – | – | – | – | – | –
Nc1nc(-c2ccccc2)cc(-c2ccc(F)cc2)c1-c1ccc(Cl)cc1 | > 100 µM | > 100 µM | > 100 µM | > 100 µM | > 100 µM | > 100 µM | > 100 µM | > 100 µM | > 100 µM | > 100 µM | – | – | – | – | – | – | –
O=C(O)c1cc(/C=C/c2ccc(O)c(O)c2)ccc1O | > 100 µM | > 100 µM | > 100 µM | > 100 µM | > 100 µM | > 100 µM | > 100 µM | > 100 µM | > 100 µM | > 100 µM | – | – | – | – | – | – | –
NCCCCN(CCCN)C(=O)OCc1ccccc1 | > 100 µM | > 100 µM | > 100 µM | > 100 µM | > 100 µM | > 100 µM | > 100 µM | > 100 µM | > 100 µM | > 100 µM | – | – | – | – | – | – | –
Cc1cc([C@H](C#N)c2nc3ccccc3s2)nc(Cl)n1 | 20.5 µM | 11 µM | 9.08 µM | > 100 µM | 15.3 µM | > 100 µM | > 100 µM | 16.3 µM | 79.2 µM | 35.1 µM | – | – | – | – | – | – | –
COc1cc(/C=C/C(=O)OC[C@]23O[C@H]2[C@@H](OC2OC(C)C(O)C(O)C2O)C2C=CO[C@@H](OC4OC(CO)C(O)C(O)C4O)C23)ccc1O (some centres not stated) | > 100 µM | > 100 µM | > 100 µM | > 100 µM | > 100 µM | > 100 µM | > 100 µM | > 100 µM | > 100 µM | > 100 µM | – | – | – | – | – | – | –
NC(=O)c1ccc(N)nc1 | > 400 µM | > 400 µM | > 400 µM | > 400 µM | > 400 µM | > 400 µM | > 400 µM | > 400 µM | > 400 µM | > 400 µM | – | – | – | – | – | – | –
CCCCc1ccc(Nc2nc(N)c3[nH]cnc3n2)cc1 | 35.3 µM | 39 µM | 36.5 µM | 39.7 µM | 52.2 µM | 40.2 µM | 60.4 µM | 66.1 µM | 88 µM | 53.2 µM | – | – | – | – | – | – | –
CCOC(=O)n1c2ccccc2c2c(O)c(OC)c3c(c21)C(=O)NC3=O | > 100 µM | 56.4 µM | > 100 µM | > 100 µM | > 100 µM | > 100 µM | > 100 µM | > 100 µM | > 100 µM | 76.3 µM | – | – | – | – | – | – | –
COC(=O)c1ccc2c(c1)CCN2C(=O)c1cc2c(cc1Br)OCO2 | 50 µM and > 100 µM | 50 µM and > 100 µM | 50 µM and > 100 µM | 5.52 µM and 20.6 µM | 50 µM | 12.1 µM and > 100 µM | 50 µM and > 100 µM | 50 µM and 23.5 µM | 6.9 µM and 40.4 µM | 4.44 µM | 0.995 µM | 2 µM | 0.532 µM | 0.896 µM | 4.88 µM | 0.378 µM | 0.652 µM
CC(=O)Nc1ccc(S(=O)(=O)/N=c2/sc(S(N)(=O)=O)nn2C)cc1 | > 100 µM | > 100 µM | > 100 µM | > 100 µM | > 100 µM | > 100 µM | > 100 µM | > 100 µM | > 100 µM | > 100 µM | – | – | – | – | – | – | –
O=c1[nH]/c(=C/c2cccs2)c(=O)[nH]/c1=C/c1ccc(OCc2ccccc2)cn1 | 40.3 µM | > 48.9 µM | 26.3 µM | > 44.4 µM | 3.46 µM | > 35.8 µM | 45.5 µM | 28.8 µM | 0.0381 µM | 33.3 µM | – | – | – | – | – | – | –
CS(=O)(=O)c1ccc(C2=C(c3ccccc3)C(=O)OC2)cc1 | > 100 µM | > 100 µM | > 100 µM | > 100 µM | > 100 µM | > 100 µM | > 100 µM | > 100 µM | > 100 µM | > 100 µM | – | – | – | – | – | – | –
COc1ccc(/C=C/C=C2C(=O)NC(=S)NC2=O)cc1 | 9.1 µM | 4.57 µM | 34.6 µM | 43.8 µM | 30.6 µM | 10 µM | > 60.7 µM | 8.68 µM | 21.7 µM | 44.6 µM | – | – | – | – | – | – | –
CSc1nc(NC2CC2)c2c(n1)Sc1nc3ccccc3n1N=C2 | 76.9 µM | 48.9 µM | > 100 µM | > 100 µM | > 100 µM | > 100 µM | 55.8 µM | > 100 µM | > 100 µM | 54.6 µM | – | – | – | – | – | – | –

Reference: PubChem BioAssay (NCI)
